Laboratory results taken from PubChem BioAssay AID1963973 (Molecular Pharmacology Branch, DTP, NCI, 2024).

Test system: 883617-216-R-J1-PDC tumor spheroids, viability
Assay: Anticancer human tumor 883617-216-R-J1-PDC patient-derived bladder carcinoma cell line growth inhibition [PI3K]
Settings: spheroids with HUVEC and MSC; for IC50: curve of first compound; for viability, T/C: stronger effect = lower value
Procedure, shortened: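 Tumor cells were combined with HUVEC and MSCs into spheroids, then dosed with PI3K-inhibitor combinations over half-log ranges capped near clinical Cmax or 10 microM.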
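Also: spheroids exposed to agents for 7 days before the viability read.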

CC1(C)CCC(Nc2ncc(C(F)(F)F)c(-c3c[nH]c4c(P(C)(C)=O)c(C#N)ccc34)n2)CN1 (centres undefined) + COc1c(OCCCN2CCOCC2)ccc2c3n(c(=NC(=O)c4cnc(N)nc4)nc12)CCN3 gave an IC50 (second compound 0.00316 µM) of less than 31.6 nM, an IC50 (second compound 0.01 µM) of less than 31.6 nM and an IC50 (second compound 0.0316 µM) of less than 31.6 nM. For the same compound, the IC50 (second compound 0.1 µM) was less than 31.6 nM, the IC50 (second compound 0.316 µM) was less than 31.6 nM and the IC50 (second compound 1 µM) was less than 31.6 nM. It also gave a viability, T/C (second compound 0.00316 µM, first compound 0.0316 µM) of 30.3%, a viability, T/C (second compound 0.00316 µM, first compound 0.1 µM) of 35% and a viability, T/C (second compound 0.00316 µM, first compound 0.316 µM) of 33%. It also gave a viability, T/C (second compound 0.00316 µM, first compound 1 µM) of 32.9%, a viability, T/C (second compound 0.00316 µM, first compound 3.16 µM) of 13.7% and a viability, T/C (second compound 0.00316 µM, first compound 10 µM) of 0.49%. It also gave a viability, T/C (second compound 0.01 µM, first compound 0.0316 µM) of 31.4%, a viability, T/C (second compound 0.01 µM, first compound 0.1 µM) of 29.6% and a viability, T/C (second compound 0.01 µM, first compound 0.316 µM) of 24.3%. For the same compound, the viability, T/C (second compound 0.01 µM, first compound 1 µM) was 23.4%, the viability, T/C (second compound 0.01 µM, first compound 3.16 µM) was 15.2% and the viability, T/C (second compound 0.01 µM, first compound 10 µM) was 1.02%. It also gave a viability, T/C (second compound 0.0316 µM, first compound 0.0316 µM) of 20.4%, a viability, T/C (second compound 0.0316 µM, first compound 0.1 µM) of 22.8% and a viability, T/C (second compound 0.0316 µM, first compound 0.316 µM) of 24.7%. The viability, T/C (second compound 0.0316 µM, first compound 1 µM) was 21.6%, the viability, T/C (second compound 0.0316 µM, first compound 3.16 µM) was 9.22% and the viability, T/C (second compound 0.0316 µM, first compound 10 µM) was 0.59%. The viability, T/C (second compound 0.1 µM, first compound 0.0316 µM) was 15.2%, the viability, T/C (second compound 0.1 µM, first compound 0.1 µM) was 12.5% and the viability, T/C (second compound 0.1 µM, first compound 0.316 µM) was 12.8%. It also gave a viability, T/C (second compound 0.1 µM, first compound 1 µM) of 10.9%, a viability, T/C (second compound 0.1 µM, first compound 3.16 µM) of 6.57% and a viability, T/C (second compound 0.1 µM, first compound 10 µM) of 1.66%. For the same compound, the viability, T/C (second compound 0.316 µM, first compound 0.0316 µM) was 5.18%, the viability, T/C (second compound 0.316 µM, first compound 0.1 µM) was 4.62% and the viability, T/C (second compound 0.316 µM, first compound 0.316 µM) was 4.01%. For the same compound, the viability, T/C (second compound 0.316 µM, first compound 1 µM) was 4.88%, the viability, T/C (second compound 0.316 µM, first compound 3.16 µM) was 1.53% and the viability, T/C (second compound 0.316 µM, first compound 10 µM) was 0.09%. For the same compound, the viability, T/C (second compound 1 µM, first compound 0.0316 µM) was 2.28%, the viability, T/C (second compound 1 µM, first compound 0.1 µM) was 1.83% and the viability, T/C (second compound 1 µM, first compound 0.316 µM) was 1.8%. It also gave a viability, T/C (second compound 1 µM, first compound 1 µM) of 1.55%, a viability, T/C (second compound 1 µM, first compound 3.16 µM) of 0.47% and a viability, T/C (second compound 1 µM, first compound 10 µM) of 0.27%.

In the case of Cn1cnc2c(F)c(Nc3ccc(Br)cc3Cl)c(C(=O)NOCCO)cc21 + Cc1nc(NC(=O)N2CCCC2C(N)=O)sc1-c1ccnc(C(C)(C)C(F)(F)F)c1, the IC50 (second compound 0.0316 µM) is reported as 49.5 nM, the IC50 (second compound 0.1 µM) is reported as 22.4 nM and the IC50 (second compound 0.316 µM) is reported as less than 9.49 nM. It also gave an IC50 (second compound 1 µM) of less than 9.49 nM, an IC50 (second compound 3.16 µM) of less than 9.49 nM and an IC50 (second compound 10 µM) of less than 9.49 nM. The viability, T/C (second compound 0.0316 µM, first compound 0.00949 µM) was 64.4%, the viability, T/C (second compound 0.0316 µM, first compound 0.03 µM) was 48.8% and the viability, T/C (second compound 0.0316 µM, first compound 0.0949 µM) was 41.5%. The viability, T/C (second compound 0.0316 µM, first compound 0.3 µM) was 44.2%, the viability, T/C (second compound 0.0316 µM, first compound 0.949 µM) was 30.8% and the viability, T/C (second compound 0.0316 µM, first compound 3 µM) was 19.5%. The viability, T/C (second compound 0.1 µM, first compound 0.00949 µM) was 62.3%, the viability, T/C (second compound 0.1 µM, first compound 0.03 µM) was 45.1% and the viability, T/C (second compound 0.1 µM, first compound 0.0949 µM) was 33.5%. For the same compound, the viability, T/C (second compound 0.1 µM, first compound 0.3 µM) was 27.7%, the viability, T/C (second compound 0.1 µM, first compound 0.949 µM) was 23.2% and the viability, T/C (second compound 0.1 µM, first compound 3 µM) was 15.9%. For the same compound, the viability, T/C (second compound 0.316 µM, first compound 0.00949 µM) was 41.4%, the viability, T/C (second compound 0.316 µM, first compound 0.03 µM) was 27.9% and the viability, T/C (second compound 0.316 µM, first compound 0.0949 µM) was 25.8%. For the same compound, the viability, T/C (second compound 0.316 µM, first compound 0.3 µM) was 20.7%, the viability, T/C (second compound 0.316 µM, first compound 0.949 µM) was 16.8% and the viability, T/C (second compound 0.316 µM, first compound 3 µM) was 9.49%. The viability, T/C (second compound 1 µM, first compound 0.00949 µM) was 18.6%, the viability, T/C (second compound 1 µM, first compound 0.03 µM) was 19% and the viability, T/C (second compound 1 µM, first compound 0.0949 µM) was 15.9%. For the same compound, the viability, T/C (second compound 1 µM, first compound 0.3 µM) was 14%, the viability, T/C (second compound 1 µM, first compound 0.949 µM) was 11.9% and the viability, T/C (second compound 1 µM, first compound 3 µM) was 4.92%. It also gave a viability, T/C (second compound 3.16 µM, first compound 0.00949 µM) of 11.2%, a viability, T/C (second compound 3.16 µM, first compound 0.03 µM) of 8.7% and a viability, T/C (second compound 3.16 µM, first compound 0.0949 µM) of 10.1%. For the same compound, the viability, T/C (second compound 3.16 µM, first compound 0.3 µM) was 7.89%, the viability, T/C (second compound 3.16 µM, first compound 0.949 µM) was 4.92% and the viability, T/C (second compound 3.16 µM, first compound 3 µM) was 2.19%. It also gave a viability, T/C (second compound 10 µM, first compound 0.00949 µM) of 4.41%, a viability, T/C (second compound 10 µM, first compound 0.03 µM) of 3.98% and a viability, T/C (second compound 10 µM, first compound 0.0949 µM) of 3.69%. It also gave a viability, T/C (second compound 10 µM, first compound 0.3 µM) of 3.12%, a viability, T/C (second compound 10 µM, first compound 0.949 µM) of 2.43% and a viability, T/C (second compound 10 µM, first compound 3 µM) of 1.07%.
